Results reported in patent US12371428B2 (Exelixis, Inc., priority 2019, dated 2025).
Structures can show the parent of a compound that is named as a salt. Where two headings read alike, the source gives them in different places.

How the values were obtained:
[1] = target: Human MER (residues 528-999) (Homo sapiens (Human), UniProt Q12866); assay: Human Mer kinase assay, HTRF KinEase (Example C-2); format: biochemical
Procedure: (§1) Kinase activity and compound inhibition were also investigated using the HTRF® KinEase assay (Cisbio Cat #62TKOPEB) per manufacturer's instructions. In short, compounds were delivered in 300 nL volumes at 10 different concentrations in DMSO (3% final) to empty 384-well assay plates (Corning cat #3824). A mixture of enzyme, […] biotynlated peptide substrate, and buffer in 10 μL volume was added. The assay was started upon the addition of ATP (at Km). The 10 μL reaction was incubated at room temperature. The reaction was stopped upon the addition of detection buffer containing streptavidin-XL665 ([…]) and TK antibody-Eu3+([…]). After a 60 min incubation at room temperature, the fluorescence at 665 nm and 620 nm was read on an Envision microplate reader (Perkin Elmer).
(§2) Kinase activity normalized to DMSO (100% activity) and reference compound at […] and (0% activity) was calculated using the fluorescence ratio […]. IC50 values were calculated by nonlinear regression analysis using a 4-parameter logistic curve fit in ActivityBase XE (IDBS).
Example C-2: Human MER (residues 528-999; CarnaBio, 1 ng/well) was also incubated with enzymatic buffer (Cisbio) supplemented with 5 mM MgCl2 and 1 mM DTT. The mixture was added to the pre-plated compounds. The reaction was initiated upon addition of ATP at Km (40 μM). The reaction was incubated at room temperature for 60 min and stopped upon the addition of SA-XL665 and TK-antibody both diluted in EDTA-containing kinase detection buffer (Cisbio). The kinase activity was calculated as stated above and the IC50 values were reported.

[2] = target: Human MET (residues 956-1390) (Homo sapiens (Human), UniProt P08581); assay: Human Met kinase assay, HTRF KinEase (Example D-2); format: biochemical; conditions: read-out: c-Met IC50
Procedure: as §1, §2
Example D-2: Human MET (residues 956-1390; CarnaBio, 0.1 ng/well) was also incubated with enzymatic buffer (Cisbio) supplemented with 5 mM MgCl2, 1 mM DTT and 1 mM MnCl2. The mixture was added to the pre-plated compounds. […] The reaction was incubated at room temperature for 40 min and stopped upon the addition of SA-XL665 and TK-antibody both diluted in EDTA-containing kinase detection buffer (Cisbio). The kinase activity was calculated as stated above and the IC50 values were reported.

[3] = target: Met (phospho-Met, HGF-stimulated PC-3 prostate cancer cells) (Homo sapiens (Human), UniProt P08581); assay: Met autophosphorylation ELISA in PC-3 cells (Example F); format: cell-based; conditions: cellular activity; Met autophosphorylation ELISA in PC-3 cells; read-out: c-Met IC50
Met (phospho-Met, HGF-stimulated PC-3 prostate cancer cells), sequence (P08581 25-1390): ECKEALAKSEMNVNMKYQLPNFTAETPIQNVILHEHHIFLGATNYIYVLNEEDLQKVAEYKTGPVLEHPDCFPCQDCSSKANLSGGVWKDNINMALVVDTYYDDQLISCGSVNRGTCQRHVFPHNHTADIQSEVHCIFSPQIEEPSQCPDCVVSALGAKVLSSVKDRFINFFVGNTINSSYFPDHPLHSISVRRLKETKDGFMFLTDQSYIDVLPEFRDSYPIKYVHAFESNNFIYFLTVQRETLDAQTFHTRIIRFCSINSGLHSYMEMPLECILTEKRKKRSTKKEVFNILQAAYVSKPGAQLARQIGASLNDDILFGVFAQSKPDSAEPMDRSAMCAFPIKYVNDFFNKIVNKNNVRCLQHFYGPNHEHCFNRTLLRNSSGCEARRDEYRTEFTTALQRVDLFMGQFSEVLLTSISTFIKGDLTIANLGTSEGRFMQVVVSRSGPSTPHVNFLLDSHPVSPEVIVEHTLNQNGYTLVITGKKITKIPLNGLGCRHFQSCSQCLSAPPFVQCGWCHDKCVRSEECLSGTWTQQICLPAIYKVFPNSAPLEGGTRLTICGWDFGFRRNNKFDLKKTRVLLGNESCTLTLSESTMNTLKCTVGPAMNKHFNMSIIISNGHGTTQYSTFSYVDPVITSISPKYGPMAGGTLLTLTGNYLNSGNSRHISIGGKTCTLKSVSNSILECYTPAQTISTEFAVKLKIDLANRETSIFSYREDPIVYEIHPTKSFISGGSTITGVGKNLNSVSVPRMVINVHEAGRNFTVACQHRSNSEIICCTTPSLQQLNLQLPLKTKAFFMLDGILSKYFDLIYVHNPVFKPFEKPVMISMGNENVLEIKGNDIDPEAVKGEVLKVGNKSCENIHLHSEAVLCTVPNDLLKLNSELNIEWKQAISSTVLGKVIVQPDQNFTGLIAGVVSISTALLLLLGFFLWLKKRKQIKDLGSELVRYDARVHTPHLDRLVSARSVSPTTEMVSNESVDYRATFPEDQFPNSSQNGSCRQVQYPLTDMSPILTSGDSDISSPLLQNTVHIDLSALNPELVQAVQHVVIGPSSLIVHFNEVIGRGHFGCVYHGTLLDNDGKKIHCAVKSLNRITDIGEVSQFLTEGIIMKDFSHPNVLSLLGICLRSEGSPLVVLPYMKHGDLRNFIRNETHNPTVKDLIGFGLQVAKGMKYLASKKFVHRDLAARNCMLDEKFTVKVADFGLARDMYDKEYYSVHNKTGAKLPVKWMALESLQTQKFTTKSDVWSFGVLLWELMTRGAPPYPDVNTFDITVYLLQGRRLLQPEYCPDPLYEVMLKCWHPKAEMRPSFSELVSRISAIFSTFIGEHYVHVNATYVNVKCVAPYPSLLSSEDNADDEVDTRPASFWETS
Procedure, shortened: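 PC-3 cells, serum-starved 3 h, were treated with compounds (8-point dose curve, 0.3% DMSO final) for 1 h, then stimulated with 100 ng/mL recombinant human HGF for 10 min. Lysate phospho-Met (panTyr) was quantified by sandwich ELISA; IC50 from 4-parameter logistic fit.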

[4] = target: KDR (phospho-KDR, VEGF165-stimulated HUVEC cells) (Homo sapiens (Human), UniProt P35968); assay: KDR autophosphorylation ELISA in HUVEC cells (Example G); format: cell-based; conditions: cellular activity; KDR autophosphorylation ELISA in HUVEC cells
KDR (phospho-KDR, VEGF165-stimulated HUVEC cells), sequence (P35968 20-1356): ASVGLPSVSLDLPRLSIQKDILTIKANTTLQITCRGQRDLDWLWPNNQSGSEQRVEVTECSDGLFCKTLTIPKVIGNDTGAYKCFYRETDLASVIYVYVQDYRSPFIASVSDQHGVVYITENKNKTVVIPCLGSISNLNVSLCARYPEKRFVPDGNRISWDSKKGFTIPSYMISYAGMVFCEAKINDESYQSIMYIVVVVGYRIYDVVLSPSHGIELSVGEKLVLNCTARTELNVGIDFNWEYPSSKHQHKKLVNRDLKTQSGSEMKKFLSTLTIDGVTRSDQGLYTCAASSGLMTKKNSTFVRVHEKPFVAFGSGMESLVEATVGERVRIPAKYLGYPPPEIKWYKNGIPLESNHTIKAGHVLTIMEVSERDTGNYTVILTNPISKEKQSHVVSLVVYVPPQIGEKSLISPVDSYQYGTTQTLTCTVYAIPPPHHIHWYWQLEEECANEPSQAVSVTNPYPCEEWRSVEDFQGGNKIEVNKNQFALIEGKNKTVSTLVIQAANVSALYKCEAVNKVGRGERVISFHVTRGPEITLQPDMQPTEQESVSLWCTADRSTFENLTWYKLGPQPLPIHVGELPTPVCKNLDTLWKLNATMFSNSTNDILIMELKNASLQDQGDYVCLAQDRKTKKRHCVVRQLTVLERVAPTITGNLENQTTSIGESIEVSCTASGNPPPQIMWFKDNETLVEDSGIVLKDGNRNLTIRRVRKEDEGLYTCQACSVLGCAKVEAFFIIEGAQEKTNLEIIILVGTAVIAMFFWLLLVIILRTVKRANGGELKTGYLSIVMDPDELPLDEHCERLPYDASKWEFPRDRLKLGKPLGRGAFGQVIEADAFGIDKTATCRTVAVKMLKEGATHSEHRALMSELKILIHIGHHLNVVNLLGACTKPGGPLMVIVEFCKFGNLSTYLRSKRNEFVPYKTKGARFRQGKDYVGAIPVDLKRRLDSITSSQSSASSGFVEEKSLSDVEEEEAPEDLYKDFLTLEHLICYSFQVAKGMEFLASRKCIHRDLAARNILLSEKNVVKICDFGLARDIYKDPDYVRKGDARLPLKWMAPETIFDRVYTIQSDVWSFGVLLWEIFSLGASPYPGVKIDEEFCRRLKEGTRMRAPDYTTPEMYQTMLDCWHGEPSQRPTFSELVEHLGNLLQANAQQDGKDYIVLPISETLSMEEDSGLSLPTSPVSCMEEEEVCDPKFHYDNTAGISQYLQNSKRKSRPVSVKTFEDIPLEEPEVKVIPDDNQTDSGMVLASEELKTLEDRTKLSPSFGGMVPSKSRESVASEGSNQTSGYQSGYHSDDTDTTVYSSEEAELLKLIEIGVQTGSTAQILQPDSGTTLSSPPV
Procedure, shortened: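 HUVECs were serum-starved 24 h, given compound as an 8-point dilution series (0.3% DMSO final) for 1 h, then stimulated with 100 ng/mL VEGF165 for 5 min. Lysate phospho-KDR was quantified by sandwich ELISA against a phospho-KDR standard, and IC50s came from a 4-parameter logistic fit.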

[5] = target: Mer (phospho-Mer, MERTK-transfected 293A cells) (Homo sapiens (Human), UniProt Q12866); assay: Mer autophosphorylation ELISA in transient transfected 293A cells (Example H); format: cell-based; conditions: cellular activity; Mer autophosphorylation ELISA in transient transfected 293A cells
Mer (phospho-Mer, MERTK-transfected 293A cells), sequence (Q12866 21-999): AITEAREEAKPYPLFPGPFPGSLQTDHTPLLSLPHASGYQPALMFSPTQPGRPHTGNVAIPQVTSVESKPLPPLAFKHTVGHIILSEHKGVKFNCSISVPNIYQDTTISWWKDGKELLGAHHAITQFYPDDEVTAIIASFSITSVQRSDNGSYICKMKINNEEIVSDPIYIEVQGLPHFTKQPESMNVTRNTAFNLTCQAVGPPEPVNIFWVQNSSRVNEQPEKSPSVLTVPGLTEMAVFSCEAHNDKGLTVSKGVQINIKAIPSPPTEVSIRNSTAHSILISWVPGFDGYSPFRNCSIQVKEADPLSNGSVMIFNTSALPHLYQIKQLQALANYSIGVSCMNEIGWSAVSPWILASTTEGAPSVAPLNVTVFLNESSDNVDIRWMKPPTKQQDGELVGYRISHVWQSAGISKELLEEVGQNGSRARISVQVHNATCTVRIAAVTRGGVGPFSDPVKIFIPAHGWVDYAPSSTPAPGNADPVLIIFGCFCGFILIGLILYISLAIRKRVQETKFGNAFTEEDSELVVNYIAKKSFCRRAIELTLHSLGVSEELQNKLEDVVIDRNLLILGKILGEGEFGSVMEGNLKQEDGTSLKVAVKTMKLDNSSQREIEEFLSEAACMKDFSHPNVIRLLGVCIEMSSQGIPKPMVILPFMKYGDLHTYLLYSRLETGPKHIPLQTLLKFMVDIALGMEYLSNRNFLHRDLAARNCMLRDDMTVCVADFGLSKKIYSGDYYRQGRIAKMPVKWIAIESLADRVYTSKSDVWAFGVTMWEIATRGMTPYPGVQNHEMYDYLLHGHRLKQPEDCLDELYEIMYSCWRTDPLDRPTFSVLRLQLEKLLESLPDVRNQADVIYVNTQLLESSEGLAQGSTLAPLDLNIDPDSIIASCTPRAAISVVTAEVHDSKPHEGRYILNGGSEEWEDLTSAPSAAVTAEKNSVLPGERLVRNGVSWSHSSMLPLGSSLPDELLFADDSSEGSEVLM
Procedure, shortened: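 Inhibition of cellular Mer autophosphorylation is determined in 293A cells transiently expressing human MERTK after 1 h compound exposure (8 concentrations, serum-free, 0.3% DMSO). Phospho-Mer in clarified lysates is measured by ELISA, with DMSO and reference-inhibitor wells defining the 100% and 0% activity limits.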

[6] = target: Human KDR (residues 790-1356) (Homo sapiens (Human), UniProt P35968); assay: Human KDR kinase assay, HTRF KinEase (Example B-2); format: biochemical; conditions: protocol of Example B-2 (other compounds)
Human KDR (residues 790-1356), sequence (P35968 790-1356): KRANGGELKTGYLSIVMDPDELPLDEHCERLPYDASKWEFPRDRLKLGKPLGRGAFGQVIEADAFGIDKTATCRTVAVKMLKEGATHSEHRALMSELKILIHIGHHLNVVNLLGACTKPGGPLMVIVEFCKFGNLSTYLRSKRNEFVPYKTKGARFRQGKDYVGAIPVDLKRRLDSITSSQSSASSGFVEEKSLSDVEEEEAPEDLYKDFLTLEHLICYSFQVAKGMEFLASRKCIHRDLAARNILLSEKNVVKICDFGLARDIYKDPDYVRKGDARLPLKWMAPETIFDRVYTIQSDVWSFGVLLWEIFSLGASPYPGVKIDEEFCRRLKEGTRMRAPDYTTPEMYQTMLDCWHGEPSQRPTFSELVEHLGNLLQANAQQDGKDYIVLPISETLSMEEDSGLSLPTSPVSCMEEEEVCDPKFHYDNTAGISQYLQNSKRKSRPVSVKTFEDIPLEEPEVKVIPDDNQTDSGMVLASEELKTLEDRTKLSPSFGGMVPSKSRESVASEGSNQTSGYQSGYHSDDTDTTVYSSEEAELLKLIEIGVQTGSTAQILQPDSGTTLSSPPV
Procedure: as §1, §2
Example B-2: Human KDR (residues 790-1356; CarnaBio, 0.1 ng/well) was also incubated with enzymatic buffer (Cisbio) supplemented with 5 mM MgCl2, 1 mM MnCl2, and 1 mM DTT. The mixture was added to the pre-plated compounds. The reaction was initiated upon addition of ATP at Km (4.0 μM). The reaction was incubated at room temperature for 40 min and stopped upon the addition of SA-XL665 and TK-antibody both diluted in EDTA-containing kinase detection buffer (Cisbio). The kinase activity was calculated as stated above and the IC50 values were reported.

[7] = protocol of Example C-2 (other compounds)
[8] = protocol of Example D-2 (other compounds)

Human MER (residues 528-999), sequence (Q12866 528-999): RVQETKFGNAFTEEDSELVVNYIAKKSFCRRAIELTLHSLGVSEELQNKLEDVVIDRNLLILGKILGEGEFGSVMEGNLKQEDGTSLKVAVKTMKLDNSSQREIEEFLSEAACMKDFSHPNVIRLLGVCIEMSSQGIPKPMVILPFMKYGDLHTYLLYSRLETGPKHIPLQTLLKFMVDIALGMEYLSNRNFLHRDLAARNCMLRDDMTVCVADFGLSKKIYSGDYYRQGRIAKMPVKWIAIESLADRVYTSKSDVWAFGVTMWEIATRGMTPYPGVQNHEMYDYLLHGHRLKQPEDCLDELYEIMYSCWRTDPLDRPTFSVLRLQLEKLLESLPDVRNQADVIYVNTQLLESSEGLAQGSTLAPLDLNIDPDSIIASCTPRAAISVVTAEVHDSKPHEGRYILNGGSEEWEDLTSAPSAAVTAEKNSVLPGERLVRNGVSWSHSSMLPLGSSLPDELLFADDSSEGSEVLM

Row | SMILES | IC50 [1, 7] [nM] | IC50 [2, 8] [nM] | IC50 [3] [nM] | IC50 [4] [nM] | IC50 [5] [nM] | IC50 [6] [nM] | IC50 ([1]; protocol of Example C-2) [nM] | IC50 ([2]; protocol of Example D-2) [nM]
1 | COc1cc2nccc(Oc3ccc(NC(=O)c4cn(N(C)C)cc(-c5ccc(F)cc5)c4=O)cc3F)c2nc1OC [Compound 136, N-[4-[(6,7-Dimethoxy-1,5-naphthyridin-4-yl)oxy]-3-fluorophenyl]-1-(dimethylamino)-5-(4-fluorophenyl)-4-oxopyridine-3-carboxamide] | < 100 | < 100 | < 100 | < 100 | < 100 | – | – | –
2 | COc1cnc2c(Oc3ccc(NC(=O)c4cnc(C)c(-c5ccc(F)cc5)c4O)cc3)ccnc2c1 [Compound 147, 5-(4-Fluorophenyl)-4-hydroxy-N-[4-[(7-methoxy-1,5-naphthyridin-4-yl)oxy]phenyl]-6-methylpyridine-3-carboxamide] | < 100 | < 100 | < 100 | < 100 | < 100 | – | – | –
3 | COc1cc2nccc(Oc3ccc(NC(=O)c4cnc(C)n(-c5ccc(F)cc5)c4=O)cc3)c2nc1OC [Compound 267, N-[4-[(6,7-Dimethoxy-1,5-naphthyridin-4-yl)oxy]phenyl]-1-(4-fluorophenyl)-2-methyl-6-oxopyrimidine-5-carboxamide] | > 300 | – | < 100 | > 300 | – | > 300 | – | –
4 | Cc1ccc(C(=O)Nc2ccc(Oc3ccnc4cccnc34)c(F)c2)c(=O)n1-c1ccc(F)cc1 [Compound 302, N-[3-Fluoro-4-(1,5-naphthyridin-4-yloxy)phenyl]-1-(4-fluorophenyl)-6-methyl-2-oxopyridine-3-carboxamide] | < 100 | – | < 100 | 100 to 300 | < 100 | > 300 | – | –
5 | Cc1ccn(-c2ccc(F)cc2)c(=O)c1C(=O)Nc1ccc(Oc2ccnc3cccnc23)c(F)c1 [Compound 303, N-[3-Fluoro-4-(1,5-naphthyridin-4-yloxy)phenyl]-1-(4-fluorophenyl)-4-methyl-2-oxopyridine-3-carboxamide] | 100 to 300 | – | < 100 | > 300 | < 100 | > 300 | – | –
6 | O=C(Nc1ccc(Oc2ccnc3cccnc23)c(F)c1)c1cccn(-c2ccc(F)cc2)c1=O [Compound 304, N-[3-Fluoro-4-(1,5-naphthyridin-4-yloxy)phenyl]-1-(4-fluorophenyl)-2-oxopyridine-3-carboxamide] | < 100 | – | < 100 | 100 to 300 | < 100 | > 300 | – | –
7 | COc1cc2nccc(Oc3ccc(NC(=O)c4c(C)c(Br)c(C)n(-c5ccc(F)cc5)c4=O)cc3F)c2nc1OC [Compound 305, 5-Bromo-N-[4-[(6,7-dimethoxy-1,5-naphthyridin-4-yl)oxy]-3-fluorophenyl]-1-(4-fluorophenyl)-4,6-dimethyl-2-oxopyridine-3-carboxamide] | < 100 | – | < 100 | 100 to 300 | < 100 | > 300 | – | –
8 | COc1cc2nccc(Oc3ccc(NC(=O)c4c(C)c(C)c(C)n(-c5ccc(F)cc5)c4=O)cc3F)c2nc1OC [Compound 306, N-[4-[(6,7-Dimethoxy-1,5-naphthyridin-4-yl)oxy]-3-fluorophenyl]-1-(4-fluorophenyl)-4,5,6-trimethyl-2-oxopyridine-3-carboxamide] | < 100 | – | < 100 | 100 to 300 | < 100 | > 300 | – | –
9 | COc1cc2nccc(Oc3ccc(NC(=O)c4c(C)c(Cl)c(C)n(-c5ccc(F)cc5)c4=O)cc3)c2nc1OC [Compound 307, 5-Chloro-N-[4-[(6,7-dimethoxy-1,5-naphthyridin-4-yl)oxy]phenyl]-1-(4-fluorophenyl)-4,6-dimethyl-2-oxopyridine-3-carboxamide] | < 100 | – | < 100 | > 300 | < 100 | > 300 | – | –
10 | COc1cc2nccc(Oc3ccc(NC(=O)c4ccc(CO)n(-c5ccc(F)cc5)c4=O)cc3F)c2nc1OC [Compound 357, N-[4-[(6,7-dimethoxy-1,5-naphthyridin-4-yl)oxy]-3-fluorophenyl]-1-(4-fluorophenyl)-6-(hydroxymethyl)-2-oxopyridine-3-carboxamide] | < 100 | – | < 100 | – | < 100 | < 100 | – | –
11 | COc1cc2nccc(Oc3ccc(NC(=O)c4c5n(cc(-c6ccc(F)cc6)c4=O)CCC5)cc3F)c2nc1OC [Compound 404, N-[4-[(6,7-dimethoxy-1,5-naphthyridin-4-yl)oxy]-3-fluorophenyl]-6-(4-fluorophenyl)-7-oxo-2,3-dihydro-1H-indolizine-8-carboxamide] | < 100 | < 100 | < 100 | < 100 | < 100 | – | – | –
12 | COc1cnc2c(Oc3ccc(NC(=O)c4c5n(cc(-c6ccc(F)cc6)c4=O)CCC5)cc3F)ccnc2c1 [Compound 405, N-[3-fluoro-4-[(7-methoxy-1,5-naphthyridin-4-yl)oxy]phenyl]-6-(4-fluorophenyl)-7-oxo-2,3-dihydro-1H-indolizine-8-carboxamide] | < 100 | < 100 | < 100 | > 300 | < 100 | – | – | –
13 | COc1nc2c(Oc3ccc(NC(=O)c4cn(C(C)C)cc(-c5ccc(F)cc5)c4=O)cc3F)ccnc2cc1-c1cccnc1 [Compound 605, N-[3-Fluoro-4-[(6-methoxy-7-pyridin-3-yl-1,5-naphthyridin-4-yl)oxy]phenyl]-5-(4-fluorophenyl)-4-oxo-1-propan-2-ylpyridine-3-carboxamide hydrochloride] | – | – | < 100 | 100 to 300 | < 100 | – | < 100 | < 100
14 | COc1nc2c(Oc3ccc(NC(=O)c4cn(C(C)C)c(C)c(-c5ccc(F)cc5)c4=O)cc3F)ccnc2cc1-c1cccnc1 [Compound 606, N-[3-Fluoro-4-[(6-methoxy-7-pyridin-3-yl-1,5-naphthyridin-4-yl)oxy]phenyl]-5-(4-fluorophenyl)-6-methyl-4-oxo-1-propan-2-ylpyridine-3-carboxamide hydrochloride] | – | – | < 100 | 100 to 300 | < 100 | – | < 100 | < 100
15 | COc1nc2c(Oc3ccc(NC(=O)c4cn(C(C)C)c(C)c(-c5ccc(F)cc5)c4=O)cc3F)ccnc2cc1-c1cnn(C(F)F)c1 [Compound 609, N-[4-[[7-[1-(Difluoromethyl)pyrazol-4-yl]-6-methoxy-1,5-naphthyridin-4-yl]oxy]-3-fluorophenyl]-5-(4-fluorophenyl)-6-methyl-4-oxo-1-propan-2-ylpyridine-3-carboxamide] | – | – | < 100 | < 100 | < 100 | – | < 100 | < 100
